The text below walks through data of ChEMBL document CHEMBL1201862, “PubChem BioAssay data set” (2004).

Structures are written as SMILES.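 48-hour exposure; five concentrations; linearly interpolated endpoints. GI50 marks 50% less growth.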 Activity calls are given as the source filed them. Cut-off read from the data, not from the text of the source: active = GI50 up to about 1.1 µM and inactive = higher. *1 amine or outer side, *2 acyl side, *3 side chain or, on linkers, in order; H or OH if unused. Where a SMILES comes first, the peptide text is derived from it. Square brackets hold non-standard residues; d marks the D form. Bridges are numbered along the chain shown (N, C = ends). Roman numbers before positions name the chains, in order. Peptide text beside a SMILES is read from it. [ ]: non-standard residue; d: D form. * marks the point of attachment. ξ: configuration not given here. Actinocin(9to1) = Cc1c2oc3c(C)ccc(C(=O)[*:1])c3nc-2c(C(=O)[*:2])c(N)c1=O; NMeV = CN[CH](C(=O)O)C(C)C; ξD = NC(CC(=O)O)C(=O)O; Ac3c = NC1(C(=O)O)CC1; Boc = CC(C)(C)OC(=O)*; OtBu = CC(C)(C)O*; Sar = CNCC(=O)O Where only a bound is given, the exact number is not on record here.

Test systems include SNB-19; MDA-MB-435; EKVX; HCC 2998; UACC-257; HCT-15; BT-549; SK-MEL-2; CAKI-1; OVCAR-3; NCI-H23; M14; ACHN; SNB-75; NCI-H226; 786-0; KM12; A498; SK-OV-3; SF-268.
Assay in all cases: NCI-60 cell line screen, 48 h

`CCC(C)C1NC(=O)C(NC(=O)C(CC(C)C)N(C)C(=O)[C@@H]2C=CCN2C(=O)[C@H](C)O)C(C)OC(=O)[C@H](Cc2ccc(OC)cc2)N(C)C(=O)[C@@H]2CCCN2C(=O)[C@H](CC(C)C)NC(=O)C(C)C(=O)[C@H](C(C)C)OC(=O)CC1O` (stereo not given in full): the GI50 in the assay on SNB-19 is 0.00374 µM (active); with MDA-MB-435, 0.00277 µM (active); in the assay with EKVX it was < 0.01 µM (active); in the assay on HCC 2998, 0.00306 µM (active); in the assay with UACC-257, 0.00311 µM (active); with HCT-15 it was 0.0239 µM. Also, the GI50 in the assay with BT-549 was 0.00365 µM (active); in the assay on SK-MEL-2 it was < 0.01 µM (active); with CAKI-1, 0.00984 µM (active); in the assay on OVCAR-3, 0.00393 µM (active); in the assay with NCI-H23, 0.00184 µM (active); in the assay with M14, 0.00188 µM (active). Moreover, the GI50 in the assay with ACHN is 0.00402 µM (active); in the assay on SNB-75 it was 0.00198 µM (active); with NCI-H226 it was < 0.01 µM (active); in the assay with 786-0, 0.00185 µM (active); in the assay with KM12, < 0.01 µM (active); with A498, 0.00671 µM (active). Moreover, the GI50 with SK-OV-3 was 0.00239 µM (active); in the assay on SF-268, 0.00243 µM (active).
As to `CC(C#N)N(CCc1ccccc1)C(=O)c1ccccc1` (stereo not given), the GI50 in the assay with SNB-19 is > 100 µM (inactive); in the assay with MDA-MB-435, > 100 µM (inactive); in the assay on EKVX, > 100 µM (inactive); in the assay on HCC 2998, > 100 µM (inactive); in the assay with UACC-257, > 100 µM (inactive); in the assay on HCT-15, > 100 µM. Moreover, the GI50 in the assay with BT-549, in the assay with SK-MEL-2, in the assay on CAKI-1, in the assay with OVCAR-3, in the assay with NCI-H23 and in the assay on M14 was > 100 µM (inactive) each time. The GI50 is > 100 µM (inactive) in the assay on ACHN; 27.4 µM (inactive) in the assay on SNB-75; > 100 µM (inactive) with NCI-H226; > 100 µM (inactive) in the assay on 786-0; > 100 µM (inactive) in the assay with KM12; > 100 µM (inactive) with A498. Besides, the GI50 in the assay with SK-OV-3 and with SF-268 was > 100 µM (inactive) in each case.
`COC1(C)CP(=O)(OC(C)C)CC(C)=C1Cl` (stereo not given): the GI50 was 28.4 µM (inactive) in the assay with SNB-19; 13.6 µM (inactive) in the assay on MDA-MB-435; 14.6 µM (inactive) in the assay on EKVX; 27 µM (inactive) with HCC 2998; 16.9 µM (inactive) in the assay on UACC-257; 12.3 µM in the assay on HCT-15. Moreover, the GI50 was 12.7 µM (inactive) in the assay on BT-549; 6.41 µM (inactive) in the assay with SK-MEL-2; 17 µM (inactive) with CAKI-1; 10.7 µM (inactive) in the assay on OVCAR-3; 10.7 µM (inactive) in the assay with NCI-H23; 13.7 µM (inactive) with M14. For the same compound, the GI50 in the assay with ACHN was 18.4 µM (inactive); with SNB-75 it was 46.9 µM (inactive); with NCI-H226, 12.5 µM (inactive); in the assay with 786-0, 19 µM (inactive); in the assay on KM12, 15.5 µM (inactive); in the assay on A498, 9.42 µM (inactive). Besides, the values for the GI50 with SK-OV-3 and in the assay on SF-268 were 49.2 µM (inactive) and 32.2 µM (inactive), respectively.
Turning to `COc1ccc2oc(=O)c(-c3nc4ccccc4s3)cc2c1`, the GI50 in the assay on SNB-19 was 46.7 µM (inactive); in the assay with MDA-MB-435, 12 µM (inactive); in the assay with EKVX, 19.2 µM (inactive); in the assay with HCC 2998, > 100 µM (inactive); with UACC-257, > 85.1 µM (inactive); with HCT-15, > 79.6 µM. For the same compound, the GI50 with BT-549 is > 63.7 µM (inactive); with SK-MEL-2, > 100 µM (inactive); in the assay with CAKI-1 it was 18.5 µM (inactive); with OVCAR-3, 14.2 µM (inactive); with NCI-H23, 27.5 µM (inactive); in the assay on M14, 22.7 µM (inactive). Also, the GI50 with ACHN was 5.55 µM (inactive); in the assay with SNB-75 it was 8.65 µM (inactive); in the assay with NCI-H226, 19.2 µM (inactive); with 786-0, 7.82 µM (inactive); in the assay on KM12, > 55.3 µM (inactive); in the assay on A498, 20.8 µM (inactive). Further, the GI50 was 13.6 µM (inactive) with SK-OV-3 and 34 µM (inactive) in the assay on SF-268.
Consider `COC(=O)C1(NC(=O)C(CC(=O)OC(C)(C)C)NC(=O)OC(C)(C)C)CC1` (stereo not given) (Boc-[ξD](OtBu)-[Ac3c]-OMe), for which the GI50 is > 100 µM (inactive) in the assay on SNB-19; > 100 µM (inactive) in the assay with MDA-MB-435; > 100 µM (inactive) with EKVX; > 100 µM (inactive) in the assay on HCC 2998; > 100 µM (inactive) in the assay on UACC-257; > 100 µM in the assay with HCT-15. Further, the GI50 in the assay on BT-549, in the assay with SK-MEL-2, in the assay with CAKI-1, with OVCAR-3, with NCI-H23 and in the assay on M14 was > 100 µM (inactive) throughout. The GI50 in the assay with ACHN, in the assay with SNB-75, in the assay with NCI-H226, in the assay with 786-0, in the assay with KM12 and in the assay on A498 was > 100 µM (inactive) each time. Further, the GI50 in the assay with SK-OV-3 is 7.87 µM (inactive); in the assay with SF-268, > 100 µM (inactive).
With `CCc1n[nH]c(=O)n1-n1c(C)ccc1C`, the GI50 in the assay with SNB-19 is > 100 µM (inactive); in the assay with MDA-MB-435 it was > 100 µM (inactive); in the assay with EKVX it was > 100 µM (inactive); in the assay with HCC 2998, > 100 µM (inactive); in the assay with UACC-257, > 100 µM (inactive); in the assay with HCT-15, > 100 µM. Besides, the GI50 in the assay on BT-549, in the assay on SK-MEL-2, with CAKI-1, in the assay with OVCAR-3, in the assay on M14 and in the assay on ACHN was > 100 µM (inactive) in each case. Also, the GI50 in the assay with SNB-75, in the assay on NCI-H226, in the assay with 786-0, in the assay on KM12, in the assay on A498 and in the assay with SK-OV-3 was > 100 µM (inactive) each time. Besides, in the assay on SF-268, the GI50 is > 100 µM (inactive).
With `CCCCC(C(=O)NCCNC(=O)CCC(=O)N(C)O)C(=O)NCCNC(=O)CCC(=O)N(C)O`, the GI50 with SNB-19 was > 100 µM (inactive); with MDA-MB-435, > 100 µM (inactive); with EKVX it was > 100 µM (inactive); in the assay with HCC 2998 it was > 100 µM (inactive); in the assay on UACC-257, > 100 µM (inactive); in the assay with HCT-15 it was > 100 µM. The GI50 in the assay on BT-549, with SK-MEL-2, with CAKI-1, in the assay on OVCAR-3, with NCI-H23 and with M14 was > 100 µM (inactive) throughout. The GI50 in the assay with ACHN, in the assay on SNB-75, in the assay on NCI-H226, in the assay on 786-0, with KM12 and in the assay with A498 was > 100 µM (inactive) each time. In the assay with SK-OV-3, the GI50 was > 100 µM (inactive).
As for `CC(=O)Oc1cc2c(n(C)c1=O)CCC2`, the GI50 with SNB-19 is > 100 µM (inactive); in the assay with MDA-MB-435 it was > 100 µM (inactive); in the assay on EKVX, > 100 µM (inactive); in the assay on HCC 2998, 81.7 µM (inactive); with UACC-257 it was > 100 µM (inactive); in the assay on HCT-15 it was 33.6 µM. The GI50 with BT-549, with SK-MEL-2, in the assay on CAKI-1, in the assay with NCI-H23, in the assay with M14 and in the assay with ACHN was > 100 µM (inactive) each time. For the same compound, the GI50 with SNB-75, with NCI-H226, in the assay on 786-0, with KM12, with A498 and with SK-OV-3 was > 100 µM (inactive) each time. In addition, in the assay with SF-268, the GI50 is > 100 µM (inactive).
As to `COc1cc(O)c2c(=O)cc(C3(OC(C)=O)C=CC(OC4OC(CO)C(O)C(O)C4O)C=C3)oc2c1` (stereo not given), the GI50 in the assay on SNB-19 was > 100 µM (inactive); with MDA-MB-435, > 100 µM (inactive); with EKVX, > 100 µM (inactive); with HCC 2998, > 100 µM (inactive); in the assay on UACC-257 it was > 100 µM (inactive); in the assay on HCT-15, > 100 µM. In addition, the GI50 in the assay on BT-549, in the assay with SK-MEL-2, with CAKI-1, in the assay on OVCAR-3, with NCI-H23 and in the assay with M14 was > 100 µM (inactive) throughout. For the same compound, the GI50 in the assay with ACHN, in the assay on SNB-75, in the assay on NCI-H226, in the assay on 786-0, with KM12 and in the assay on A498 was > 100 µM (inactive) in each case. Also, in the assay with SK-OV-3, the GI50 was > 100 µM (inactive).
Consider `Cc1c2oc3c(C)ccc(C(=O)NC4C(=O)NC(Cc5ccccc5)C(=O)N5CCCC5C(=O)N(C)CC(=O)N(C)C(C(C)C)C(=O)OC4C)c3nc-2c(C(=O)NC2C(=O)NC(Cc3ccccc3)C(=O)N3CCCC3C(=O)N(C)CC(=O)N(C)C(C(C)C)C(=O)OC2C)c(N)c1=O` (stereo not given) (I: TFP[Sar][NMeV] / II: TFP[Sar][NMeV]; ester I:1-I:C, II:1-II:C; linker I:N-II:N via Actinocin(9to1); configuration not given here), for which the GI50 was < 0.001 µM (active) with MDA-MB-435; 0.136 µM (active) in the assay with EKVX; < 0.001 µM (active) with HCC 2998; < 0.001 µM (active) with UACC-257; 0.0296 µM in the assay with HCT-15; 0.01 µM (active) with BT-549. In addition, the GI50 is < 0.001 µM (active) in the assay on SK-MEL-2; 0.00151 µM (active) in the assay on CAKI-1; < 0.001 µM (active) with OVCAR-3; < 0.001 µM (active) in the assay with NCI-H23; 0.0105 µM (active) in the assay on M14; < 0.001 µM (active) in the assay with ACHN. Moreover, the GI50 with SNB-75 was 0.00577 µM (active); in the assay with NCI-H226, < 0.001 µM (active); in the assay on 786-0, < 0.001 µM (active); with KM12 it was < 0.001 µM (active); in the assay on A498 it was 0.00204 µM (active); with SK-OV-3, < 0.001 µM (active). For the same compound, in the assay on SF-268, the GI50 is < 0.001 µM (active).
